Test results published in patent US20240252514A1, “NEUROACTIVE STEROID FOR THE TREATMENT OF MILD COGNITIVE IMPAIRMENT ASSOCIATED WITH PARKINSON'S DISEASE” (SAGE THERAPEUTICS, INC., priority 2021, published 2024).
Entries after “also recorded” stand apart in the source; their conditions may differ.

Assays:
Type in all cases: in vivo, human
[1] = test system: patients suffering from Mild Cognitive Impairment due to Parkinson's Disease (PD-MCI); experiment: Tests of Executive Functioning (MTT, OTS, SWM, DSST, 2-Back), open label study
Protocol: (§1) The safety and tolerability of Compound 1 and its effects on cognitive, neuropsychiatric, and motor symptoms in patients suffering from Mild Cognitive Impairment due to Parkinson's Disease (PD-MCI) was evaluated in an open label study. Eligible participants with a confirmed diagnosis of idiopathic PD by 2015 Movement Disorder Society (MDS) criteria (Berardelli et al., EFNS/MDS-ES/ENS recommendations for the diagnosis of Parkinson's disease. Eur J Neurol. 2013; 20:16-34) at Screening and who met MDS Task Force Criteria for MCI in PD (excluding requirement for UK PD Brain Bank diagnostic criteria) received 3.0 mg of Compound 1 (oral dose) daily for 14 days. Participants were instructed to take the daily dose of Compound 1 in the morning within 1 hour of initiating a meal containing approximately 30 g of fat. The study protocol was as follows and is depicted in FIG. 1.
(§2) Beginning on Day 1 and continuing through Day 14, participants self-administered 3.0 mg Compound 1 (as six 0.5-mg oral tablets), once per day in the morning within 1 hour after initiating a meal containing approximately 30 g of fat, in accordance with the guidelines provided in a nutritional information brochure. Participants continued to complete daily assessments of cognitive performance and sleep via mobile device either remotely (at home), or in the clinic at scheduled visits and tracked Compound 1 dosing and predose food intake in a participant diary.
(§3) Eight patients (male and female) aged 50 to 75 years old with mild cognitive impairment due to Parkinson's disease received 3 mg as oral tablets of Compound 1 daily for 2-weeks.
The tests of Executive Functioning included (1) Multitasking Test (MTT), which assesses how well the subject manages conflicting information; (2) One Touch Stockings of Cambridge (OTS), which assesses how well the subject plans, holds onto, and manipulates information to solve a puzzle; (3) Spatial Working Memory (SWM), which assesses how well the subject develops and uses a strategy to find hidden information; (4) Digit Symbol Substitution Task (DSST), which assesses how efficiently can the subject complete a demanding task (daily measure); and (5) Two-Back Test (NBX), which asks is the symbol the same as that shown two symbols ago.

[2] = test system: patients suffering from Mild Cognitive Impairment due to Parkinson's Disease (PD-MCI); experiment: Safety and tolerability (adverse events), open label study; details: 3 mg oral daily for 14 days, follow-up to Day 28
Protocol: as §1
At scheduled visits during the Treatment Period, participants completed the mobile device tasks under staff supervision. At scheduled clinic visits during the Treatment Period, safety, efficacy, and PK procedures were performed. In addition to weekly clinic visits, study staff contacted participants by telephone on Day 4 to document any TEAEs and/or changes in concomitant medications.
Participants were contacted by telephone on Day 21 to document any AEs and/or changes in concomitant medications. Participants returned to the clinic on Day 28 (±2 days) for a follow-up visit.
The Primary objective of the study was to assess (1) the percentage of Participants With at Least One Treatment-Emergent Adverse Event (TEAE) (Time Frame: Up to Day 28).

[3] = test system: patients suffering from Mild Cognitive Impairment due to Parkinson's Disease (PD-MCI); experiment: Tests of Social Cognition (ERT, EBT), open label study; details: 3 mg oral daily for 14 days, vs baseline, Clinic/Weekly
Protocol: as §1
Beginning on Day 1 and continuing through Day 14, participants self-administered 3.0 mg Compound 1 (as six 0.5-mg oral tablets), once per day in the morning within 1 hour after initiating a meal containing approximately 30 g of fat, in accordance with the guidelines provided in a nutritional information brochure. […]

[4] = test system: patients suffering from Mild Cognitive Impairment due to Parkinson's Disease (PD-MCI); experiment: Tests of Attention and Psychomotor Performance (RTI, PVT), open label study
Protocol: as §1, §2, §3
The tests of Attention and Psychomotor Performance included Reaction Time (RTI), which assesses how fast the subject can respond to a stimulus (weekly measure); Psychomotor Vigilance Task (PVT), which assesses how fast can the subject respond to a stimulus (daily measure).

[5] = test system: patients suffering from Mild Cognitive Impairment due to Parkinson's Disease (PD-MCI); experiment: Tests of Learning and Memory (PAL, PRM, Verbal Recognition Memory, Spatial Span), open label study
Protocol: as §1, §2, §3
The tests of Learning and Memory included Paired Associates Learning (PAL), which assesses how well the subject remembers the location of hidden objects; Pattern Recognition Memory (PRM), which assesses how well the subject remembers a pattern; and Verbal Recognition Memory […], which assesses how well the subject stores and retrieves verbal information.

[6] = PD-MCI patients, 3 mg oral daily for 14 days, vs baseline, Clinic/Weekly
[7] = 3 mg oral daily for 14 days, vs baseline, Clinic/Weekly

C[C@H](CC[C@](C)(O)C(F)(F)F)[C@H]1CC[C@H]2[C@@H]3CC=C4C[C@@](C)(O)CC[C@]4(C)[C@H]3CC[C@]12C [Compound 1]
Trend, Executive Functioning: 2-Back [1, 6]: Improvement
Trend, Executive Functioning: Multitasking [1, 6]: Improvement
Trend, Executive Functioning: One Touch Stockings [1, 6]: Improvement
Trend, Executive Functioning: Spatial working Memory [1, 6]: Improvement
Trend, Executive Functioning: DSST ([1]; PD-MCI patients, 3 mg oral daily for 14 days, vs baseline, Mobile/Daily): Improvement
Performance in the cognitive domain of executive function (five tests, overall) ([1]; PD-MCI patients, 3 mg oral daily, during 14 days of treatment, vs baseline (FIGS. 2-3)): performance improvements from baseline; also recorded: improved performance
DSST improvement over baseline ([1]; PD-MCI subjects, 3 mg oral daily, Treatment Day 14 (FIG. 3)): ~27%
Serious adverse events [2]: no serious adverse events
Tolerability [2]: generally well tolerated
Treatment emergent adverse events related to the compound [2]: no treatment emergent adverse events were determined to be related to Compound 1
Trend, Social Cognition: Emotional Bias [3]: Improvement
Trend, Social Cognition: Emotional Recognition [3]: Neutral
Trend, Attention & Psychomotor Speed: Reaction Time [4, 7]: Neutral
Trend, Attention & Psychomotor Speed: Psychomotor Vigilance ([4]; 3 mg oral daily for 14 days, vs baseline, Mobile/Daily): Neutral
Performance in tests of attention and psychomotor speed (overall) ([4]; 3 mg oral daily, 14 days (FIG. 6)): neutral results; also recorded: no appreciable change
Trend, Learning and Memory: Paired Associates [5, 7]: Improvement
Trend, Learning and Memory: Pattern recognition [5, 7]: Improvement
Trend, Learning and Memory: Spatial Span [5, 7]: Neutral
Trend, Learning and Memory: Verbal Memory [5, 7]: Improvement
Performance in the domains of learning and memory (overall) ([5]; 3 mg oral daily, 14 days, vs baseline (FIGS. 4 and 5)): improved performance from baseline
